{"source": "paper PMC2763079", "about": "(Molecular Imaging and Biology, 2009)", "key": {"TSPO [1]": {"biological_target": "T1, TSPO (Rattus norvegicus, UniProt P16257)", "T1 sequence (P16257 whole entry)": "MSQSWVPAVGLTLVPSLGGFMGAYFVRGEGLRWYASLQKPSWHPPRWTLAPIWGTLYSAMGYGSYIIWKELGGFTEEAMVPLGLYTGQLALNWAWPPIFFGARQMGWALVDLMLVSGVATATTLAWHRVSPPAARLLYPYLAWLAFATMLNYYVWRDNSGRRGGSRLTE", "assay": "ex vivo biodistribution after PET scan", "type": "in vivo", "details": "60 min after tracer injection"}, "TSPO [2]": {"biological_target": "T1, TSPO", "assay": "correlation of specific binding in control rats with [^3H]-PK11195 binding", "type": "in vivo"}}, "data": [{"smiles": "CC[C@@H](C)N(C)C(=O)c1cc2ccccc2c(-c2ccccc2Cl)n1", "note": "[[^11C]-(R)-PK11195, (R)-N-methyl-N-(1-methylpropyl)-1-(2-chlorophenyl)isoquinoline-3-carboxamide]", "values": [{"measurement": "Ex vivo biodistribution SUV, bulbus olfactorius", "setting": "TSPO [1]; HSE rats", "result": 1.59, "unit": "SUV"}, {"measurement": "Ex vivo biodistribution SUV, cerebellum", "setting": "TSPO [1]; HSE rats", "result": 0.88, "unit": "SUV"}, {"measurement": "Ex vivo biodistribution SUV, medulla", "setting": "TSPO [1]; HSE rats", "result": 1.29, "unit": "SUV"}, {"measurement": "Ex vivo biodistribution SUV, pons", "setting": "TSPO [1]; HSE rats", "result": 1.54, "unit": "SUV"}, {"measurement": "Ex vivo biodistribution SUV, bulbus olfactorius", "setting": "TSPO [1]; control rats", "result": 1.20, "unit": "SUV"}, {"measurement": "Ex vivo biodistribution SUV, cerebellum", "setting": "TSPO [1]; control rats", "result": 0.51, "unit": "SUV"}, {"measurement": "Ex vivo biodistribution SUV, medulla", "setting": "TSPO [1]; control rats", "result": 0.61, "unit": "SUV"}, {"measurement": "Ex vivo biodistribution SUV, pons", "setting": "TSPO [1]; control rats", "result": 0.59, "unit": "SUV"}, {"measurement": "R, correlation of specific binding in control rats with [^3H]-PK11195 binding", "setting": "TSPO [2]; Pearson correlation, [^3H]-PK11195 binding from Kurumaji et al. [25]", "result": 0.96}, {"measurement": "slope of the linear regression of specific binding vs [^3H]-PK11195 binding", "setting": "TSPO [2]; control rats", "result": 0.010}]}]}
